Laboratory results from US20040010036A1, “N,N, -Substituted s-Aryl-Isothioureas, N,N,N, -Substituted s-Aryl-Isothioureas and combinatorial libraries thereof” (priority 2002, published 2004).

Test system: Streptococcus pyogenes (ATCC# 97-03 14289)
Assay: Anti-microbial screen (percent inhibition of growth, OD 570 nm)
Assay type: cell-based
Details: Spy4H: Streptococcus pyogenes, read at 4 hours, OD 570 nm; Conc 0.1776 mg ml
In short: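 Frozen stock diluted into 2×THB, compounds in DMSO added at time zero. OD 570 nm read at 0 h to correct for insoluble or coloured compounds and again at 4 h. Percent growth inhibition calculated against blank-corrected solvent controls.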

Compound | inhibition of growth at 177.6 µg/mL [%]
Cc1ccc(S/C(=N\c2ccc(F)c(F)c2)N(Cc2cccc(O)c2)CC2CCCCC2)c(C)c1 [Cmpd 1276] | 57.3
COCCN(Cc1cccc(O)c1)/C(=N\c1ccccc1F)Sc1ccc(C)cc1C [compound 107] | 75.8
